# Measured values taken from ChEMBL document CHEMBL1159126, “Salicylanilide carbamates: antitubercular agents active against multidrug-resistant Mycobacterium tuberculosis strains” (Bioorg Med Chem, 2010).
# What was measured:
# Test in all cases: microbe, parasite or virus in culture
# [1] = system: Mycobacterium tuberculosis; conditions: isolate 9449/06, 504 h
# [2] = system: Mycobacterium tuberculosis; conditions: isolate Praha 1, 504 h
# [3] = system: Mycobacterium tuberculosis; conditions: isolate Praha 1, 336 h
# [4] = system: Mycobacterium tuberculosis; conditions: isolate 2092/05, 504 h
# [5] = system: Mycobacterium tuberculosis; conditions: isolate Praha 128, 336 h
# [6] = system: Mycobacterium tuberculosis; conditions: isolate Praha 128, 504 h
# [7] = system: Mycobacterium tuberculosis; conditions: isolate 7357/98, 504 h
# [8] = system: Mycobacterium tuberculosis; conditions: isolate 9449/06, 336 h
# [9] = system: Mycobacterium tuberculosis; conditions: isolate 2092/05, 336 h
# [10] = system: Mycobacterium tuberculosis; conditions: isolate 7357/98, 336 h
SMILES,MIC [1] [µM],MIC [2] [µM],MIC [3] [µM],MIC [4] [µM],MIC [5] [µM],MIC [6] [µM],MIC [7] [µM],MIC [8] [µM],MIC [9] [µM],MIC [10] [µM]
CCCCCCNC(=O)Oc1ccc(Cl)cc1C(=O)Nc1ccc(Cl)c(Cl)c1,0.5,1,0.5,0.5,0.5,0.5,1,0.5,0.5,0.5
CCNC(=O)Oc1ccc(Cl)cc1C(=O)Nc1ccc(Cl)c(Cl)c1,0.5,1,0.5,0.5,0.5,0.5,1,0.5,0.5,0.5
CCCCNC(=O)Oc1ccc(Cl)cc1C(=O)Nc1ccc(Cl)c(Cl)c1,0.5,1,0.5,1,0.5,1,1,1,0.5,0.5
CCCCCNC(=O)Oc1ccc(Cl)cc1C(=O)Nc1ccc(Cl)c(Cl)c1,0.5,1,0.5,0.5,0.5,0.5,0.5,0.5,0.5,0.5
CCCCCNC(=O)Oc1ccc(Cl)cc1C(=O)Nc1ccc(Cl)cc1,1,2,1,1,1,1,2,1,1,1
CCCCCCCNC(=O)Oc1ccc(Cl)cc1C(=O)Nc1ccc(Cl)c(Cl)c1,0.5,1,0.5,1,0.5,1,0.5,0.5,0.5,0.5
CCCCCCCCNC(=O)Oc1ccc(Cl)cc1C(=O)Nc1ccc(Cl)c(Cl)c1,0.5,2,1,1,0.5,1,1,1,0.5,1
CCCCCCNC(=O)Oc1ccc(Cl)cc1C(=O)Nc1cccc(Cl)c1,1,2,1,2,1,2,1,1,1,1
NNC(=O)c1ccncc1 [ISONIAZID],16,16,16,16,16,16,16,16,16,16
